{
  "source": "patent US20230286948A1",
  "about": "(HUYABIO International, LLC, priority 2022, published 2023)",
  "target": "MLL1-WDR5 protein-protein interaction (Homo sapiens (Human), UniProt P61964)",
  "test": "WDR5 TR-FRET assay (MLL1-WDR5 PPI inhibition)",
  "assay_type": "binding",
  "conditions": "5 nM WDR5 protein, 10 nM peptide, read-out: IC50 (nM), MLL1-WDR5 PPI inhibitory activity",
  "protocol": "WDR5 TR-FRET Assay Procedure: Stock compounds were transferred to the assay plate by Echo Liquid Handler. […] Stock compounds were incubated with WDR5 protein for 30 min at room temperature. Plates were covered, protected from light and incubated for 60 min at room temperature, after adding the peptide and Tb-Ab. EnVision Multimode Plate Reader (PerkinElmer) was used for the TR-FRET assay with excitation wavelength at 340 nm and emission wavelength at 495 and 520 nm. The ratio of the 520/495 wavelengths were used to assess the degree of the FRET signal. IC50 was calculated by fitting the inhibition data using XLfit software to sigmoidal dose-response model.",
  "data": [
    {"smiles": "CN1CCN(c2ccc(-n3cc(C(=O)NCCCN4CCOCC4)nn3)cc2NC(=O)c2cnc([S+](C)[O-])nc2C(F)(F)F)CC1", "note": "(centres unmarked) [Example 28, N-(2-(4-methylpiperazin-1-yl)-5-(4-((3-morpholinopropyl)carbamoyl)-1H-1,2,3-triazol-1-yl)phenyl)-2-(methylsulfinyl)-4-(trifluoromethyl)pyrimidine-5-carboxamide]", "values": [
      {"measurement": "IC50", "result": "> 10000", "unit": "nM"}
    ]},
    {"smiles": "CCOc1ncc(C(=O)Nc2cc(-n3cc(C(=O)NCCCN4CCOCC4)nn3)ccc2N2CCN(C)CC2)c(C(F)(F)F)n1", "note": "[Example 29, 2-ethoxy-N-(2-(4-methylpiperazin-1-yl)-5-(4-((3-morpholinopropyl)carbamoyl)-1H-1,2,3-triazol-1-yl)phenyl)-4-(trifluoromethyl)pyrimidine-5-carboxamide]", "values": [
      {"measurement": "IC50", "result": "> 10000", "unit": "nM"}
    ]},
    {"smiles": "COc1nc(SC)ncc1C(=O)Nc1cc(-n2cc(C(=O)NCCCN3CCOCC3)nn2)ccc1N1CCN(C)CC1", "note": "[Example 30, 4-methoxy-N-(2-(4-methylpiperazin-1-yl)-5-(4-((3-morpholinopropyl)carbamoyl)-1H-1,2,3-triazol-1-yl)phenyl)-2-(methylthio)pyrimidine-5-carboxamide]", "values": [
      {"measurement": "IC50", "result": "> 10000", "unit": "nM"}
    ]},
    {"smiles": "Cc1cc(C(F)(F)F)ncc1C(=O)Nc1cc(-n2cc(C(=O)NCCCN3CCOCC3)nn2)ccc1N1CCN(C)CC1", "note": "[Example 31, 4-methyl-N-(2-(4-methylpiperazin-1-yl)-5-(4-((3-morpholinopropyl)carbamoyl)-1H-1,2,3-triazol-1-yl)phenyl)-6-(trifluoromethyl)nicotinamide]", "values": [
      {"measurement": "IC50", "result": "> 10000", "unit": "nM"}
    ]},
    {"smiles": "CN1CCN(c2ccc(-n3cc(C(=O)NCCCN4CCOCC4)nn3)cc2NC(=O)c2nnc(Cl)cc2Cl)CC1", "note": "[Example 32, 4,6-dichloro-N-(2-(4-methylpiperazin-1-yl)-5-(4-((3-morpholinopropyl)carbamoyl)-1H-1,2,3-triazol-1-yl)phenyl)pyridazine-3-carboxamide]", "values": [
      {"measurement": "IC50", "result": "> 10000", "unit": "nM"}
    ]},
    {"smiles": "CN1CCN(c2ccc(-n3cc(C(=O)NCCCN4CCOCC4)nn3)cc2NC(=O)c2nnc(Cl)cc2N)CC1", "note": "[Example 33, 4-amino-6-chloro-N-(2-(4-methylpiperazin-1-yl)-5-(4-((3-morpholinopropyl)carbamoyl)-1H-1,2,3-triazol-1-yl)phenyl)pyridazine-3-carboxamide]", "values": [
      {"measurement": "IC50", "result": "> 10000", "unit": "nM"}
    ]},
    {"smiles": "CN1CCN(c2ccc(-n3cc(C(=O)NCCCN4CCOCC4)nn3)cc2NC(=O)c2ncc(Cl)nc2Cl)CC1", "note": "[Example 34, 3,5-dichloro-N-[2-(4-methylpiperazin-1-yl)-5-[4-(3-morpholinopropylcarbamoyl)triazol-1-yl]phenyl]pyrazine-2-carboxamide]", "values": [
      {"measurement": "IC50", "result": "> 10000", "unit": "nM"}
    ]},
    {"smiles": "COc1cnc(C(=O)Nc2cc(-n3cc(C(=O)NCCCN4CCOCC4)nn3)ccc2N2CCN(C)CC2)c(Cl)n1", "note": "[Example 35, 3-chloro-5-methoxy-N-(2-(4-methylpiperazin-1-yl)-5-(4-((3-morpholinopropyl)carbamoyl)-1H-1,2,3-triazol-1-yl)phenyl)pyrazine-2-carboxamide]", "values": [
      {"measurement": "IC50", "result": "> 10000", "unit": "nM"}
    ]},
    {"smiles": "COc1cnc(C(=O)Nc2cc(-n3cc(C(=O)NCCCN4CCOCC4)nn3)ccc2N2CCN(C)CC2)c(OC)n1", "note": "[Example 36, 3,5-dimethoxy-N-(2-(4-methylpiperazin-1-yl)-5-(4-((3-morpholinopropyl)carbamoyl)-1H-1,2,3-triazol-1-yl)phenyl)pyrazine-2-carboxamide]", "values": [
      {"measurement": "IC50", "result": "> 10000", "unit": "nM"}
    ]},
    {"smiles": "CN1CCN(c2ccc(-n3cc(C(=O)NCCCN4CCOCC4)nn3)cc2NC(=O)c2ccc(Cl)nc2C(F)(F)F)CC1", "note": "[Example 37, 6-chloro-N-(2-(4-methylpiperazin-1-yl)-5-(4-((3-morpholinopropyl)carbamoyl)-1H-1,2,3-triazol-1-yl)phenyl)-2-(trifluoromethyl)nicotinamide]", "values": [
      {"measurement": "IC50", "result": 1960, "unit": "nM"}
    ]},
    {"smiles": "COc1ccc(C(=O)Nc2cc(-n3cc(C(=O)NCCCN4CCOCC4)nn3)ccc2N2CCN(C)CC2)c(C(F)(F)F)n1", "note": "[Example 38, 6-methoxy-N-(2-(4-methylpiperazin-1-yl)-5-(4-((3-morpholinopropyl)carbamoyl)-1H-1,2,3-triazol-1-yl)phenyl)-2-(trifluoromethyl)nicotinamide]", "values": [
      {"measurement": "IC50", "result": "> 10000", "unit": "nM"}
    ]},
    {"smiles": "CN1CCN(c2ccc(-n3cc(C(=O)NCCCN4CCOCC4)nn3)cc2NC(=O)c2ccc(C#N)nc2C(F)(F)F)CC1", "note": "[Example 39, 6-cyano-N-[2-(4-methylpiperazin-1-yl)-5-[4-(3-morpholinopropylcarbamoyl)triazol-1-yl]phenyl]-2-(trifluoromethyl)pyridine-3-carboxamide]", "values": [
      {"measurement": "IC50", "result": 1150, "unit": "nM"}
    ]},
    {"smiles": "COc1ccc(CNc2ccc(C(=O)Nc3cc(-n4cc(C(=O)NCCCN5CCOCC5)nn4)ccc3N3CCN(C)CC3)c(C(F)(F)F)n2)cc1", "note": "[Example 42, 6-((4-methoxybenzyl)amino)-N-(2-(4-methylpiperazin-1-yl)-5-(4-((3-morpholinopropyl)carbamoyl)-1H-1,2,3-triazol-1-yl)phenyl)-2-(trifluoromethyl)nicotinamide]", "values": [
      {"measurement": "IC50", "result": "> 10000", "unit": "nM"}
    ]},
    {"smiles": "CSc1ccc(C(=O)Nc2cc(-n3cc(C(=O)NCCCN4CCOCC4)nn3)ccc2N2CCN(C)CC2)c(C(F)(F)F)n1", "note": "[Example 43, N-(2-(4-methylpiperazin-1-yl)-5-(4-((3-morpholinopropyl)carbamoyl)-1H-1,2,3-triazol-1-yl)phenyl)-6-(methylthio)-2-(trifluoromethyl)nicotinamide]", "values": [
      {"measurement": "IC50", "result": "> 10000", "unit": "nM"}
    ]},
    {"smiles": "CN1CCN(c2ccc(-n3cc(C(=O)NCCCN4CCOCC4)nn3)cc2NC(=O)c2ccc(S(C)(=O)=O)nc2C(F)(F)F)CC1", "note": "[Example 44, N-[2-(4-methylpiperazin-1-yl)-5-[4-(3-morpholinopropylcarbamoyl)triazol-1-yl]phenyl]-6-methylsulfonyl-2-(trifluoromethyl)pyridine-3-carboxamide]", "values": [
      {"measurement": "IC50", "result": "> 10000", "unit": "nM"}
    ]},
    {"smiles": "CN1CCN(c2ccc(-n3cc(C(=O)NCCCN4CCOCC4)nn3)cc2NC(=O)c2ccc(Cl)cc2C(F)(F)F)CC1", "note": "[Example 46, 1-(3-(4-chloro-2-(trifluoromethyl)benzamido)-4-(4-methylpiperazin-1-yl)phenyl)-N-(3-morpholinopropyl)-1H-1,2,3-triazole-4-carboxamide]", "values": [
      {"measurement": "IC50", "result": 458, "unit": "nM"}
    ]},
    {"smiles": "CN1CCN(c2ccc(-n3cc(C(=O)NCCCN4CCOCC4)nn3)cc2NC(=O)c2cc(C(F)(F)F)cc(C(F)(F)F)c2)CC1", "note": "[Example 47, 1-(3-(3,5-bis(trifluoromethyl)benzamido)-4-(4-methylpiperazin-1-yl)phenyl)-N-(3-morpholinopropyl)-1H-1,2,3-triazole-4-carboxamide]", "values": [
      {"measurement": "IC50", "result": 3520, "unit": "nM"}
    ]},
    {"smiles": "Cc1cc(Cl)c(C(=O)Nc2cc(-n3cc(C(=O)NCCCN4CCOCC4)nn3)ccc2N2CCN(C)CC2)cc1[N+](=O)[O-]", "note": "[Example 48, 1-[3-[(2-chloro-4-methyl-5-nitro-benzoyl)amino]-4-(4-methylpiperazin-1-yl)phenyl]-N-(3-morpholinopropyl)triazole-4-carboxamide]", "values": [
      {"measurement": "IC50", "result": "> 10000", "unit": "nM"}
    ]},
    {"smiles": "Cc1cc(Cl)c(C(=O)Nc2cc(-n3cc(C(=O)NCCCN4CCOCC4)nn3)ccc2N2CCN(C)CC2)cc1N", "note": "[Example 49, 1-(3-(5-amino-2-chloro-4-methylbenzamido)-4-(4-methylpiperazin-1-yl)phenyl)-N-(3-morpholinopropyl)-1H-1,2,3-triazole-4-carboxamide]", "values": [
      {"measurement": "IC50", "result": 4370, "unit": "nM"}
    ]},
    {"smiles": "C[C@@H]1CN(c2cc(F)c(-n3cc(C(=O)N4CCN(C)CC4)nn3)cc2NC(=O)c2cnc(Cl)cc2C(F)(F)F)C[C@H](C)N1C", "note": "[Example 51, 6-chloro-N-(4-fluoro-5-(4-(4-methylpiperazine-1-carbonyl)-1H-1,2,3-triazol-1-yl)-2-((3S,5R)-3,4,5-trimethylpiperazin-1-yl)phenyl)-4-(trifluoromethyl)nicotinamide]", "values": [
      {"measurement": "IC50", "result": 326, "unit": "nM"}
    ]},
    {"smiles": "C[C@@H]1CN(c2cc(F)c(-n3cc(C(=O)NC4CCN(C)CC4)nn3)cc2NC(=O)c2cnc(Cl)cc2C(F)(F)F)C[C@H](C)N1C", "note": "[Example 52, 6-chloro-N-(4-fluoro-5-(4-((1-methylpiperidin-4-yl)carbamoyl)-1H-1,2,3-triazol-1-yl)-2-((3S,5R)-3,4,5-trimethylpiperazin-1-yl)phenyl)-4-(trifluoromethyl)nicotinamide]", "values": [
      {"measurement": "IC50", "result": 287, "unit": "nM"}
    ]},
    {"smiles": "CCN(CC)C(=O)c1cn(-c2cc(NC(=O)c3cnc(F)cc3C(F)(F)F)c(N3C[C@@H](C)N(C)[C@@H](C)C3)cc2F)nn1", "note": "[Example 53, N-(5-(4-(diethylcarbamoyl)-1H-1,2,3-triazol-1-yl)-4-fluoro-2-((3S,5R)-3,4,5-trimethylpiperazin-1-yl)phenyl)-6-fluoro-4-(trifluoromethyl)nicotinamide]", "values": [
      {"measurement": "IC50", "result": 535, "unit": "nM"}
    ]},
    {"smiles": "COc1cc(C(F)(F)F)c(C(=O)Nc2cc(-n3cc(C(=O)NC4CCN(C)CC4)nn3)c(F)cc2N2C[C@@H](C)N(C)[C@@H](C)C2)cn1", "note": "[Example 54, N-(4-fluoro-5-(4-((1-methylpiperidin-4-yl)carbamoyl)-1H-1,2,3-triazol-1-yl)-2-((3S,5R)-3,4,5-trimethylpiperazin-1-yl)phenyl)-6-methoxy-4-(trifluoromethyl)nicotinamide]", "values": [
      {"measurement": "IC50", "result": 618, "unit": "nM"}
    ]},
    {"smiles": "COc1cc(C(F)(F)F)c(C(=O)Nc2cc(-n3cc(C(=O)NCCCN4CCOCC4)nn3)c(F)cc2N2C[C@@H](C)N(C)[C@@H](C)C2)cn1", "note": "[Example 55]", "values": [
      {"measurement": "IC50", "result": 2820, "unit": "nM"}
    ]},
    {"smiles": "CCN(CC)C(=O)c1cn(-c2cc(NC(=O)c3cnc(Cl)cc3Cl)c(N3C[C@@H](C)N(C)[C@@H](C)C3)cc2F)nn1", "note": "[Example 56, 4,6-dichloro-N-[5-[4-(diethylcarbamoyl)triazol-1-yl]-4-fluoro-2-[(3R,5S)-3,4,5-trimethylpiperazin-1-yl]phenyl]pyridine-3-carboxamide]", "values": [
      {"measurement": "IC50", "result": 1160, "unit": "nM"}
    ]},
    {"smiles": "C[C@@H]1CN(c2cc(F)c(-n3cc(C(=O)N4CCN(C)CC4)nn3)cc2NC(=O)c2cnc(Cl)cc2Cl)C[C@H](C)N1C", "note": "[Example 57, 4,6-dichloro-N-(4-fluoro-5-(4-(4-methylpiperazine-1-carbonyl)-1H-1,2,3-triazol-1-yl)-2-((3S,5R)-3,4,5-trimethylpiperazin-1-yl)phenyl)nicotinamide]", "values": [
      {"measurement": "IC50", "result": 2170, "unit": "nM"}
    ]}
  ]
}
